From US20180250280A1 (BAYER PHARMA AKTIENGESELLSCHAFT, priority 2015, published 2018) come the findings set out here.

The target of test [1] is T1, human factor XIa (Homo sapiens, UniProt P03951).
T1 construct: purchased Kordia
Description: Measurement of FXIa inhibition (fluorogenic peptide substrate, AMC cleavage). The class given is biochemical. The following applies: factor XIa from Kordia 0.45 nM; substrate Boc-Glu(OBzl)-Ala-Arg-AMC 10 μM; 30 min at 22° C.; in some cases averages from multiple determinations.

The target of test [2] is T2, human plasma kallikrein (Homo sapiens, UniProt P03952).
T2 construct: purchased Kordia
T2 sequence (P03952 391-638 limits assumed): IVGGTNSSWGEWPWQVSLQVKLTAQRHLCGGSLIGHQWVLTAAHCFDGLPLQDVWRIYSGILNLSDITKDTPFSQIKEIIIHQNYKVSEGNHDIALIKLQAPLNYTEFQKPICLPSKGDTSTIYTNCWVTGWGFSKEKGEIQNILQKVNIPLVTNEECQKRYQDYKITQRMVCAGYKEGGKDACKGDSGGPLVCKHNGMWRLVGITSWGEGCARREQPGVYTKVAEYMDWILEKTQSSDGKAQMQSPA
T2 sequence (P03952 20-390 partner limits assumed): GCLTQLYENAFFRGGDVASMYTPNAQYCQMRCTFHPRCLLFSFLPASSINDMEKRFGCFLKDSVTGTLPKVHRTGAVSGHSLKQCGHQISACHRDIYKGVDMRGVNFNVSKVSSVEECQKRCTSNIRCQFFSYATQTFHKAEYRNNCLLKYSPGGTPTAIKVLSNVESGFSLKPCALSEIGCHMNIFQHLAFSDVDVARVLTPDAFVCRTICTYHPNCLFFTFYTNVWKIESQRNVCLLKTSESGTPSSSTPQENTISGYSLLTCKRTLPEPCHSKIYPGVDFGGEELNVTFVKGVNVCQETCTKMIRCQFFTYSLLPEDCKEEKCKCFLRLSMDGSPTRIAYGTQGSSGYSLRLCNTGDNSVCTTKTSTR
In words: Determination of the plasma kallikrein activity (fluorogenic peptide substrate, AMC cleavage). The following applies: plasma kallikrein from Kordia 0.6 nM; substrate H-Pro-Phe-Arg-AMC 10 μM; 30 min at 22° C.; in some cases averages from multiple determinations. The class given is biochemical. An outline of the steps:
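Kallikrein cleavage of H-Pro-Phe-Arg-AMC was followed by AMC fluorescence (ex 360, em 460) after 15 min enzyme–compound preincubation. IC50 was derived versus DMSO controls over final concentrations of 50 μM to 0.00013 μM.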

T1 sequence (P03951 388-625 limits assumed): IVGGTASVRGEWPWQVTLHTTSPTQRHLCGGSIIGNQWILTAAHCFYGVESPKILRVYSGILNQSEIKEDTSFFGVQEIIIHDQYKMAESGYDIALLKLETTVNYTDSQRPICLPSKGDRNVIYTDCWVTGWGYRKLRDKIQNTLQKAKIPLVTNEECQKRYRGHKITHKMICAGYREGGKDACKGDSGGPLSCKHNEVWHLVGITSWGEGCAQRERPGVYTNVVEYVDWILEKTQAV
T1 sequence (P03951 19-387 partner limits assumed): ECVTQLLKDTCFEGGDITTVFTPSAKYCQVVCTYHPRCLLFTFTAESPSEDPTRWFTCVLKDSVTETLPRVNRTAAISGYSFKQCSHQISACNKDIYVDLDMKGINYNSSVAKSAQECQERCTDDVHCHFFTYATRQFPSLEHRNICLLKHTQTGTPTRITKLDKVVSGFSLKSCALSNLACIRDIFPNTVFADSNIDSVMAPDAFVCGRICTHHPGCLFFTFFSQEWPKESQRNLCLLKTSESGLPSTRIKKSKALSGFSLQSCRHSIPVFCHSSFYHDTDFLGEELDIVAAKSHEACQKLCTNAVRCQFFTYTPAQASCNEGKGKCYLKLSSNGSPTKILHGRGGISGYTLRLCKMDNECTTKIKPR

As for `COc1cn(C(C[C@@H]2CCCCO2)C(=O)Nc2ccc3nc(C(=O)O)cn3c2)c(=O)cc1-c1cc(Cl)ccc1OCC(F)(F)F` (some centres unmarked) [Example 77], the IC50 was found to be 0.0022 µM in test [1] and 0.023 µM in test [2].

What is called IC50 is the concentration that gives 50% inhibition. Read a high IC50 as weaker potency in that assay.
